# Measured values as given in patent US20120157401A1, “METHODS FOR TREATING NEUROFIBROMATOSIS” (PTC Therapeutics, Inc., priority 2009, published 2012).
# Where two headings read alike, the source gives them in different places.
# Test system: hypoxia-inducible endogenous VEGF expression
# Assay: Hypoxia-inducible endogenous VEGF expression ELISA in HeLa cells, dose-response EC50 (Table 3)
# Format: cell-based, human
# Conditions: Homo sapiens
# How it was run: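 HeLa cells kept 24-48 h under hypoxia (1% O2, 5% CO2, nitrogen balance) with or without compound, e.g. seven concentrations; secreted VEGF in conditioned medium quantified by ELISA against a standard curve. Parallel Cell Titer Glo viability under identical conditions excludes cytotoxicity.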
# [1] = HeLa cells, hypoxic conditions (1% O2), VEGF ELISA of conditioned media, read-out: ELISA EC50
SMILES,EC50 [1],"EC50 (HeLa, read-out: ELISA EC50 μM)"
CC(CO)(CO)COc1ccc(C2c3[nH]c4ccc(Br)cc4c3CCN2C(=O)Oc2ccc(F)cc2)cc1 (stereo not drawn) [Compound 1352],< 0.008 µM,
CC(CO)(CO)COc1ccc(C2c3[nH]c4ccc(Br)cc4c3CCN2C(=O)Oc2ccc(Cl)cc2)cc1 (stereo not drawn) [Compound 1353],< 0.008 µM,
CCC(CO)(CO)COc1ccc(C2c3[nH]c4ccc(Br)cc4c3CCN2C(=O)Oc2ccc(F)cc2)cc1 (stereo not drawn) [Compound 1357],< 0.008 µM,
CCC(CO)(CO)COc1ccc(C2c3[nH]c4ccc(Br)cc4c3CCN2C(=O)Oc2ccc(Cl)cc2)cc1 (stereo not drawn) [Compound 1358],< 0.008 µM,
COc1ccc(OC(=O)N2CCc3c([nH]c4ccc(Cl)cc34)[C@@H]2c2ccc(OCC[C@@H](O)CO)cc2)cc1 [Compound 1361],0.008 to 0.04 µM,
COC(=O)[C@H]1CCCN1CCCOc1ccc(C2c3[nH]c4ccc(Cl)cc4c3CCN2C(=O)Oc2ccc(Cl)cc2)cc1 (stereo partly drawn) [Compound 1362],,< 0.008 µM
CC(=O)N1CCN(CCCOc2cccc(C3c4[nH]c5ccc(Cl)cc5c4CCN3C(=O)Oc3ccc(F)cc3)c2)CC1 (stereo not drawn) [Compound 1364],,0.04 to 0.2 µM
[H]/N=c1\sccn1CCOc1ccc(C2c3[nH]c4ccc(Cl)cc4c3CCN2C(=O)Oc2ccc(F)cc2)cc1 (stereo not drawn) [Compound 1391],< 0.008 µM,
[H]/N=c1\sc(C)cn1CCOc1ccc(C2c3[nH]c4ccc(Cl)cc4c3CCN2C(=O)Oc2ccc(F)cc2)cc1 (stereo not drawn) [Compound 1392],< 0.008 µM,
[H]/N=c1\sccn1CCOc1ccc(C2c3[nH]c4ccc(Cl)cc4c3CCN2C(=O)Oc2ccc(Cl)cc2)cc1 (stereo not drawn) [Compound 1393],< 0.008 µM,
[H]/N=c1\sc(C)cn1CCOc1ccc(C2c3[nH]c4ccc(Cl)cc4c3CCN2C(=O)Oc2ccc(Cl)cc2)cc1 (stereo not drawn) [Compound 1394],< 0.008 µM,
Nc1ccn(CCOc2ccc(C3c4[nH]c5ccc(Cl)cc5c4CCN3C(=O)Oc3ccc(F)cc3)cc2)n1 (stereo not drawn) [Compound 1413],< 0.008 µM,
Cc1cc(N)nn1CCOc1ccc(C2c3[nH]c4ccc(Cl)cc4c3CCN2C(=O)Oc2ccc(F)cc2)cc1 (stereo not drawn) [Compound 1414],< 0.008 µM,
[H]/N=c1\scnn1CCOc1ccc(C2c3[nH]c4ccc(Cl)cc4c3CCN2C(=O)Oc2ccc(F)cc2)cc1 (stereo not drawn) [Compound 1415],< 0.008 µM,
NC(=O)c1cn(CCOc2ccc(C3c4[nH]c5ccc(Cl)cc5c4CCN3C(=O)Oc3ccc(F)cc3)cc2)nc1N (stereo not drawn) [Compound 1416],0.04 to 0.2 µM,
Nc1ccn(CCOc2ccc(C3c4[nH]c5ccc(Cl)cc5c4CCN3C(=O)Oc3ccc(Cl)cc3)cc2)n1 (stereo not drawn) [Compound 1417],< 0.008 µM,
Cc1cc(N)nn1CCOc1ccc(C2c3[nH]c4ccc(Cl)cc4c3CCN2C(=O)Oc2ccc(Cl)cc2)cc1 (stereo not drawn) [Compound 1418],0.008 to 0.04 µM,
Cc1cc(NCCOc2ccc(C3c4[nH]c5ccc(Cl)cc5c4CCN3C(=O)Oc3ccc(Cl)cc3)cc2)on1 (stereo not drawn) [Compound 1419],0.008 to 0.04 µM,
[H]/N=c1\scnn1CCOc1ccc(C2c3[nH]c4ccc(Cl)cc4c3CCN2C(=O)Oc2ccc(Cl)cc2)cc1 (stereo not drawn) [Compound 1420],< 0.008 µM,
N#Cc1cn(CCOc2ccc(C3c4[nH]c5ccc(Cl)cc5c4CCN3C(=O)Oc3ccc(Cl)cc3)cc2)nc1N (stereo not drawn) [Compound 1421],< 0.008 µM,
NC(=O)c1cn(CCOc2ccc(C3c4[nH]c5ccc(Cl)cc5c4CCN3C(=O)Oc3ccc(Cl)cc3)cc2)nc1N (stereo not drawn) [Compound 1422],0.008 to 0.04 µM,
O=C(Oc1ccc(F)cc1)N1CCc2c([nH]c3ccc(Cl)cc23)C1c1ccc(OCCNc2ncncn2)cc1 (stereo not drawn) [Compound 1440],< 0.008 µM,
N#Cc1cn(CCOc2ccc(C3c4[nH]c5ccc(Cl)cc5c4CCN3C(=O)Oc3ccc(F)cc3)cc2)nc1N (stereo not drawn) [Compound 1441],0.008 to 0.04 µM,
O=C(Oc1ccc(Cl)cc1)N1CCc2c([nH]c3ccc(Cl)cc23)C1c1ccc(OCCNc2ncncn2)cc1 (stereo not drawn) [Compound 1442],< 0.008 µM,

SMILES,EC50 [1],"EC50 (HeLa, read-out: ELISA EC50 μM)"
O=C(Oc1ccc(Cl)cc1)N1CCc2c([nH]c3ccc(Cl)cc23)C1c1ccc(OCCCN2CC[C@@H](O)C2)cc1 (stereo partly drawn) [Compound 1476],,0.04 to 0.2 µM
N#CCOc1ccc(C2c3[nH]c4ccc(Cl)cc4c3CCN2C(=O)Oc2ccc(Cl)cc2)cc1 (stereo not drawn) [Compound 1520],< 0.008 µM,
O=C(Oc1ccc(Cl)cc1)N1CCc2c([nH]c3ccc(Cl)cc23)C1c1ccc(OCCCN2CCC(O)CC2)cc1 (stereo not drawn) [Compound 1537],,< 0.008 µM
CC(=O)Oc1ccc([C@H]2c3[nH]c4ccc(Cl)cc4c3CCN2C(=O)Oc2ccc(Cl)cc2)cc1 [Compound 1538],< 0.008 µM,
CC(=O)Oc1ccc([C@@H]2c3[nH]c4ccc(Cl)cc4c3CCN2C(=O)Oc2ccc(Cl)cc2)cc1 [Compound 1539],0.04 to 0.2 µM,
N#CCOc1ccc(C2c3[nH]c4ccc(Cl)cc4c3CCN2C(=O)Oc2ccccc2Cl)cc1 (stereo not drawn) [Compound 1546],0.04 to 0.2 µM,
N#CCOc1ccc(C2c3[nH]c4ccc(Cl)cc4c3CCN2C(=O)Oc2ccc(Br)cc2)cc1 (stereo not drawn) [Compound 1547],< 0.008 µM,
N#CCOc1ccc(C2c3[nH]c4ccc(Cl)cc4c3CCN2C(=O)Oc2ccc(F)cc2)cc1 (stereo not drawn) [Compound 1548],0.008 to 0.04 µM,
COc1ccc(OC(=O)N2CCc3c([nH]c4ccc(Cl)cc34)C2c2ccc(OCC#N)cc2)cc1 (stereo not drawn) [Compound 1549],0.008 to 0.04 µM,
CS(=O)(=O)CCCOc1ccc(C2c3[nH]c4ccc(Cl)cc4c3CCN2C(=O)Oc2ccc(Cl)cc2)cc1 (stereo not drawn) [Compound 1551],< 0.008 µM,
CCSCCCOc1ccc(C2c3[nH]c4ccc(Cl)cc4c3CCN2C(=O)Oc2ccc(Cl)cc2)cc1 (stereo not drawn) [Compound 1552],< 0.008 µM,
CC(C)SCCCOc1ccc(C2c3[nH]c4ccc(Cl)cc4c3CCN2C(=O)Oc2ccc(Cl)cc2)cc1 (stereo not drawn) [Compound 1553],< 0.008 µM,
CN1CCC(OCCCOc2ccc(C3c4[nH]c5ccc(Cl)cc5c4CCN3C(=O)Oc3ccc(Cl)cc3)cc2)CC1 (stereo not drawn) [Compound 1554],,> 1 µM
O=C(Oc1ccc(Cl)cc1)N1CCc2c([nH]c3ccc(Cl)cc23)C1c1ccc(OCCCOCCN2CCOCC2)cc1 (stereo not drawn) [Compound 1555],,< 0.008 µM
CC(C)S(=O)(=O)NCC(O)COc1ccc(C2c3[nH]c4ccc(Cl)cc4c3CCN2C(=O)Oc2ccc(F)cc2)cc1 (stereo not drawn) [Compound 1557],0.2 to 1 µM,
CCC(=O)NCC(O)COc1ccc(C2c3[nH]c4ccc(Cl)cc4c3CCN2C(=O)Oc2ccc(Cl)cc2)cc1 (stereo not drawn) [Compound 1558],0.008 to 0.04 µM,
CC(C)C(=O)NCC(O)COc1ccc(C2c3[nH]c4ccc(Cl)cc4c3CCN2C(=O)Oc2ccc(Cl)cc2)cc1 (stereo not drawn) [Compound 1559],0.008 to 0.04 µM,
O=C(NCC(O)COc1ccc(C2c3[nH]c4ccc(Cl)cc4c3CCN2C(=O)Oc2ccc(Cl)cc2)cc1)C1CC1 (stereo not drawn) [Compound 1560],0.008 to 0.04 µM,
O=C(NCC(O)COc1ccc(C2c3[nH]c4ccc(Cl)cc4c3CCN2C(=O)Oc2ccc(Cl)cc2)cc1)c1cccnc1 (stereo not drawn) [Compound 1561],0.008 to 0.04 µM,
CCOC(=O)NCC(O)COc1ccc(C2c3[nH]c4ccc(Cl)cc4c3CCN2C(=O)Oc2ccc(Cl)cc2)cc1 (stereo not drawn) [Compound 1562],0.008 to 0.04 µM,
CCCOC(=O)NCC(O)COc1ccc(C2c3[nH]c4ccc(Cl)cc4c3CCN2C(=O)Oc2ccc(Cl)cc2)cc1 (stereo not drawn) [Compound 1563],0.008 to 0.04 µM,
COCCOC(=O)NCC(O)COc1ccc(C2c3[nH]c4ccc(Cl)cc4c3CCN2C(=O)Oc2ccc(Cl)cc2)cc1 (stereo not drawn) [Compound 1564],< 0.008 µM,
CCS(=O)(=O)NCC(O)COc1ccc(C2c3[nH]c4ccc(Cl)cc4c3CCN2C(=O)Oc2ccc(Cl)cc2)cc1 (stereo not drawn) [Compound 1565],0.008 to 0.04 µM,
CC(C)S(=O)(=O)NCC(O)COc1ccc(C2c3[nH]c4ccc(Cl)cc4c3CCN2C(=O)Oc2ccc(Cl)cc2)cc1 (stereo not drawn) [Compound 1566],0.04 to 0.2 µM,
